# Biological target: T1, c-kit (Homo sapiens, UniProt P10721)
# T1 construct: human Mo7e cells which endogenously express c-kit; endogenous in cells; host or cells: human Mo7e cells (SCF-dependent promegakaryocytic leukemia line)
# Assay: Mo7e cell proliferation assay (SCF dependent proliferation)
# Type: cell-based
# Conditions: Table 1; human Mo7e cells stimulated with human recombinant SCF, 48 h, CellTiter Glo; 1% FBS (footnote)
# Summary of the method: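 SCF-dependent proliferation of human Mo7e cells, which express c-kit endogenously, was measured after 48 h at 37° C by CellTiter Glo luminescence. IC50 was taken as the concentration giving a response halfway between the baseline and maximum responses.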
# T1 sequence (P10721 26-976): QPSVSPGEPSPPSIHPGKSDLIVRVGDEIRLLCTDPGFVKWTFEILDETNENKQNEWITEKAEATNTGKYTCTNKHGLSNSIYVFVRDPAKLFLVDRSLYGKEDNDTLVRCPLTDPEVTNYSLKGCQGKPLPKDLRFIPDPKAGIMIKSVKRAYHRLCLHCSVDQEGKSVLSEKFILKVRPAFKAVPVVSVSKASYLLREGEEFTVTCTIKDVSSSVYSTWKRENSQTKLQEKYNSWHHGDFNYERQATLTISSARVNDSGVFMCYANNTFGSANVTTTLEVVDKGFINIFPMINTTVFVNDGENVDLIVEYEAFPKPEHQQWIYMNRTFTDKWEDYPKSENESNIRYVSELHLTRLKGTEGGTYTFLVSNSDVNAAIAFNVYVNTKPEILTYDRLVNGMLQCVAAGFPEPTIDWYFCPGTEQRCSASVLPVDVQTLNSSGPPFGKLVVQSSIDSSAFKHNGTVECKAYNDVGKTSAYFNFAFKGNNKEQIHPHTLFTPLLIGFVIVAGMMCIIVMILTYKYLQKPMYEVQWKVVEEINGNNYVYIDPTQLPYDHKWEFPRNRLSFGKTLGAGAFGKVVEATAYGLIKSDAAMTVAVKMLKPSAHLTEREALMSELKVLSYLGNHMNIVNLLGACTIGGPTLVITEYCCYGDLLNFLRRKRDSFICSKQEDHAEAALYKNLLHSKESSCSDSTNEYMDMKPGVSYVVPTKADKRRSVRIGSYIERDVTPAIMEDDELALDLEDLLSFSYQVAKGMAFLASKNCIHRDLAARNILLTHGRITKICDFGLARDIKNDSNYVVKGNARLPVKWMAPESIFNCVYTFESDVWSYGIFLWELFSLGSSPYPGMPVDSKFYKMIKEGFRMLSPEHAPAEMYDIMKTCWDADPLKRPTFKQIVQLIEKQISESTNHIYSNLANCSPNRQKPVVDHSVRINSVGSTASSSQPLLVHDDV
row,SMILES,IC50
1,"CCOC(=O)c1nc(C)c(-c2ccc3ncc(C(=O)Nc4cc(-c5noc(C)n5)ccc4C)n3c2)s1 [F261, ethyl 4-methyl-5-(3-((2-methyl-5-(5-methyl-1,2,4-oxadiazol-3-yl)phenyl)carbamoyl)imidazo[1,2-a]pyridin-6-yl)thiazole-2-carboxylate]",83 nM
2,Cc1ccc(-c2noc(CNC(=O)CC(F)(F)F)n2)cc1NC(=O)c1cnc2ccccn12 [F35],43 nM
3,CCOC(=O)NCc1nc(-c2ccc(C)c(NC(=O)c3cnc4ccc(F)cn34)c2)no1 [F38],47 nM
4,Cc1ccc(-c2noc(COC(CF)CF)n2)cc1NC(=O)c1cnc2ccccn12 [F95],28 nM
5,Cc1nc(-c2ccc(C)c(NC(=O)c3cnc4ccc(-c5c(C)noc5C)cn34)c2)no1 [F49],53 nM
6,[2H]c1c([2H])c([2H])n2c(C(=O)Nc3cc(-c4noc(CC=C(C)C)n4)ccc3C)cnc2c1[2H] [F52],16 nM
7,Cc1nc(-c2ccc(C)c(NC(=O)c3cnc4ccc(-c5cn[nH]c5)cn34)c2)no1 [F43],46 nM
8,CO[C@H](C)c1nc(-c2ccc(C)c(NC(=O)c3cnc4ccccn34)c2)no1 [F14],99 nM
9,Cc1nc(-c2ccc(C)c(NC(=O)c3cnc4ccc(-c5cscn5)cn34)c2)no1 [F47],50 nM
10,CCOCCOCc1nc(-c2ccc(C)c(NC(=O)c3cnc4ccccn34)c2)no1 [F32],72 nM
11,CCN(Cc1nc(-c2ccc(C)c(NC(=O)c3cnc4ccccn34)c2)no1)S(C)(=O)=O [F22],89 nM
12,"Cc1nc(-c2ccc(C)c(NC(=O)c3cnc4ccc(-c5sc(C(=O)NCCO)nc5C)cn34)c2)no1 [F263, N-(2-hydroxyethyl)-4-methyl-5-(3-((2-methyl-5-(5-methyl-1,2,4-oxadiazol-3-yl)phenyl)carbamoyl)imidazo[1,2-a]pyridin-6-yl)thiazole-2-carboxamide]",58 nM
13,"Cc1ccn2c(C(=O)Nc3cc(-c4noc(CCC(C)(O)C(F)(F)F)n4)ccc3C)cnc2c1 (centres unmarked) [F67, 7-methyl-N-(2-methyl-5-(5-(4,4,4-trifluoro-3-hydroxy-3-methylbutyl)-1,2,4-oxadiazol-3-yl)phenyl)imidazo[1,2-a]pyridine-3-carboxamide]",16 nM
14,"Cc1ccc(-c2noc(CCC(C)(O)C(F)(F)F)n2)cc1NC(=O)c1cnc2ccccn12 (centres unmarked) [F66, N-(2-methyl-5-(5-(4,4,4-trifluoro-3-hydroxy-3-methylbutyl)-1,2,4-oxadiazol-3-yl)phenyl)imidazo[1,2-a]pyridine-3-carboxamide]",27 nM
15,"Cc1nc(C)c(-c2ccc3ncc(C(=O)Nc4cc(-c5noc(COCC(F)(F)F)n5)ccc4C)n3c2)s1 [F91, 6-(2,4-dimethylthiazol-5-yl)-N-(2-methyl-5-(5-((2,2,2-trifluoroethoxy)methyl)-1,2,4-oxadiazol-3-yl)phenyl)imidazo[1,2-a]pyridine-3-carboxamide]",6 nM
16,Cc1ccc(-c2noc(CNC(=O)OC(C)(C)C)n2)cc1NC(=O)c1cnc2ccccn12 [F6],8 nM
17,Cc1ccc2ncc(C(=O)Nc3cc(-c4noc(CC[C@](C)(O)C(F)(F)F)n4)ccc3C)n2c1 [F84],30 nM
18,Cc1ccc(-c2noc(CCC(C)(O)C(F)(F)F)n2)cc1NC(=O)c1cnc2ccc(F)cn12 (centres unmarked) [F71],54 nM
19,Cc1ccc(-c2noc(CNS(=O)(=O)C(C)C)n2)cc1NC(=O)c1cnc2ccccn12 [F25],79 nM
20,COC(=O)NCc1nc(-c2ccc(C)c(NC(=O)c3cnc4cc(-c5cnn(CCN6CCOCC6)c5)ccn34)c2)no1 [F41],23 nM
21,Cc1ccn2c(C(=O)Nc3cc(-c4noc(COCC(F)(F)F)n4)ccc3C)cnc2c1 [F77],10 nM
22,"Cc1nc(-c2ccc(C)c(NC(=O)c3cnc4ccc(-c5sc(C(N)=O)nc5C)cn34)c2)no1 [F264, 4-methyl-5-(3-((2-methyl-5-(5-methyl-1,2,4-oxadiazol-3-yl)phenyl)carbamoyl)imidazo[1,2-a]pyridin-6-yl)thiazole-2-carboxamide]",38 nM
23,"CNC(=O)Cn1nc(C)c(-c2ccc3ncc(C(=O)Nc4cc(-c5noc(C)n5)ccc4C)n3c2)c1C [F260, 6-(3,5-dimethyl-1-(2-(methylamino)-2-oxoethyl)-1H-pyrazol-4-yl)-N-(2-methyl-5-(5-methyl-1,2,4-oxadiazol-3-yl)phenyl)imidazo[1,2-a]pyridine-3-carboxamide]",32 nM
24,"Cc1ccc(-c2noc(COCCOC(C)C)n2)cc1NC(=O)c1cnc2ccccn12 [F33, N-(5-(5-((2-isopropoxyethoxy)methyl)-1,2,4-oxadiazol-3-yl)-2-methylphenyl)imidazo[1,2-a]pyridine-3-carboxamide]",81 nM
25,CCS(=O)(=O)NCc1nc(-c2ccc(C)c(NC(=O)c3cnc4ccccn34)c2)no1 [F20],61 nM
26,Cc1ccc(-c2noc(CCC(C)(C)O)n2)cc1NC(=O)c1cnc2cc(C3CC3)ccn12 [F64],48 nM
27,"[2H]C([2H])([2H])c1ccn2c(C(=O)Nc3cc(-c4noc(COCC(F)(F)F)n4)ccc3C)cnc2c1 [F78, 7-methyl-d3-N-(2-methyl-5-(5-((2,2,2-trifluoroethoxy)methyl)-1,2,4-oxadiazol-3-yl)phenyl)imidazo[1,2-a]pyridine-3-carboxamide]",9 nM
28,"Cc1nc(-c2ccc(C)c(NC(=O)c3cnc4ccc(-c5c(C)nn(CCO)c5C)cn34)c2)no1 [F255, 6-(1-(2-hydroxyethyl)-3,5-dimethyl-1H-pyrazol-4-yl)-N-(2-methyl-5-(5-methyl-1,2,4-oxadiazol-3-yl)phenyl)imidazo[1,2-a]pyridine-3-carboxamide]",16 nM
29,"Cc1ccc(Nc2noc(C(C)(C)CO)n2)cc1NC(=O)c1cnc2ccccn12 [F46, N-(5-(5-(1-hydroxy-2-methylpropan-2-yl)-1,2,4-oxadiazol-3-ylamino)-2-methylphenyl)imidazo[1,2-a]pyridine-3-carboxamide]",13 nM
30,"Cc1nc(-c2ccc(C)c(NC(=O)c3cnc4ccc(-c5c(C)nn(CCN6CCOCC6)c5C)cn34)c2)no1 [F106, 6-(3,5-dimethyl-1-(2-morpholinoethyl)-1H-pyrazol-4-yl)-N-(2-methyl-5-(5-methyl-1,2,4-oxadiazol-3-yl)phenyl)imidazo[1,2-a]pyridine-3-carboxamide]",24 nM

# Same assay, conditions: Table 2; human Mo7e cells stimulated with human recombinant SCF, 48 h, CellTiter Glo; 1% FBS (footnote)
row,SMILES,IC50
1,Cc1ccc(-c2noc(C(O)C(F)(F)F)n2)cc1NC(=O)c1cnc2ccccn12 (centres unmarked) [F162],266 nM
2,O=C(Nc1cc(-c2noc(CC(O)(C(F)(F)F)C(F)(F)F)n2)ccc1F)c1cnc2ccccn12 [F153],246 nM
3,Cc1nc(-c2ccc(C)c(NC(=O)c3cnc4ccc(-c5ccnn5C)cn34)c2)no1 [F208],228 nM
4,COC(=O)N[C@H](C)Cc1nc(-c2ccc(C)c(NC(=O)c3cnc4ccccn34)c2)no1 [F150],196 nM
5,COC(=O)NCc1nc(-c2ccc(C)c(NC(=O)c3cnc4ccc(C)cn34)c2)no1 [F204],157 nM
6,Cc1ccc(-c2noc(CCN)n2)cc1NC(=O)c1cnc2ccccn12 [F226],2180 nM
7,"COC(=O)NCc1nc(-c2ccc(C)c(NC(=O)c3cnc4ccc(F)cn34)c2)no1 [F167, methyl (3-(3-(6-fluoroimidazo[1,2-a]pyridine-3-carboxamido)-4-methylphenyl)-1,2,4-oxadiazol-5-yl)methylcarbamate]",166 nM
8,Cc1ccc(-c2noc(C(F)F)n2)cc1NC(=O)c1cnc2ccccn12 [F160],480 nM
9,"Cc1ccc(-c2noc(CN(C)S(C)(=O)=O)n2)cc1NC(=O)c1cnc2ccccn12 [F144, N-(2-methyl-5-(5-((N-methylmethylsulfonamido)methyl)-1,2,4-oxadiazol-3-yl)phenyl)imidazo[1,2-a]pyridine-3-carboxamide]",156 nM
10,Cc1ccc(-c2noc(CCCN)n2)cc1NC(=O)c1cnc2ccccn12 [F112],174 nM
11,CCNC(=O)Cc1nc(-c2ccc(C)c(NC(=O)c3cnc4ccccn34)c2)no1 [F209],318 nM
12,Cc1nc(-c2ccc(C)c(NC(=O)c3cnc4ccc(CCC(C)(C)O)cn34)c2)no1 [F181],287 nM
13,COCCOCc1nc(-c2ccc(C)c(NC(=O)c3cnc4ccccn34)c2C)no1 [F215],886 nM
14,CO[C@@H](C)C(=O)NCc1nc(-c2ccc(C)c(NC(=O)c3cnc4ccccn34)c2)no1 [F133],183 nM
15,Cc1ccc(-c2noc(C(F)C(F)(F)F)n2)cc1NC(=O)c1cnc2ccccn12 (centres unmarked) [F199],126 nM
16,Cc1ccc(-c2noc(CCCNS(C)(=O)=O)n2)cc1NC(=O)c1cnc2ccccn12 [F115],772 nM
17,Cc1ccc(-c2noc(CO)n2)cc1NC(=O)c1cnc2ccccn12 [F124],217 nM
18,COC(=O)NCc1nc(-c2ccc(C)c(NC(=O)c3cnc4cc(CCC(=O)O)ccn34)c2)no1 [F232],> 10000 nM
19,Cc1ccc(-c2noc(C(C)(C)O)n2)cc1NC(=O)c1cnc2ccccn12 [F173],281 nM
20,COC(=O)NCc1nc(-c2ccc(C)c(NC(=O)c3cnc4cc(C(F)(F)F)ccn34)c2)no1 [F170],462 nM
21,CCN(CC)C(=O)Cc1nc(-c2ccc(C)c(NC(=O)c3cnc4ccccn34)c2)no1 [F210],431 nM
22,Cc1nc(-c2ccc(C)c(NC(=O)c3cnc4ccc(-c5nc(C)c(C(C)O)s5)cn34)c2)no1 (centres unmarked) [F236],166 nM
23,Cc1ccc(-c2noc(CCC(C)(C)O)n2)cc1NC(=O)c1cnc2ccc(COCC(F)(F)F)cn12 [F195],150 nM
24,Cc1ccn2c(C(=O)Nc3cc(-c4noc(CC[C@](C)(OC(=O)[C@H](N)C(C)C)C(F)(F)F)n4)ccc3C)cnc2c1 [F252],134 nM
25,Cc1nc(-c2ccc(C)c(NC(=O)c3cnc4ccc(-c5nc(C)c(C(=O)NCCN6CCN(C)CC6)s5)cn34)c2)no1 [F243],194 nM
26,COC(=O)NCc1nc(-c2ccc(C)c(NC(=O)c3cnc4cc(CCC(C)(C)O)ccn34)c2)no1 [F178],279 nM
27,Cc1ccc(-c2noc(CNC(=O)CCO)n2)cc1NC(=O)c1cnc2ccccn12 [F224],1480 nM
28,Cc1ccn2c(C(=O)Nc3cc(-c4noc(CCC(C)(C)OC(=O)CN)n4)ccc3C)cnc2c1 [F249],108 nM
29,Cc1ccc(-c2noc(COCCOCC(F)(F)F)n2)cc1NC(=O)c1cnc2ccc(F)cn12 [F175],104 nM

# From patent US20150011508A1, “COMPOUNDS AND COMPOSITIONS AS C-KIT KINASE INHIBITORS” (priority 2011, published 2015)
